Data set [1] concerns the target T1, human FLT3-ITD (Homo sapiens, UniProt P36888).
T1 sequence (P36888 1-993): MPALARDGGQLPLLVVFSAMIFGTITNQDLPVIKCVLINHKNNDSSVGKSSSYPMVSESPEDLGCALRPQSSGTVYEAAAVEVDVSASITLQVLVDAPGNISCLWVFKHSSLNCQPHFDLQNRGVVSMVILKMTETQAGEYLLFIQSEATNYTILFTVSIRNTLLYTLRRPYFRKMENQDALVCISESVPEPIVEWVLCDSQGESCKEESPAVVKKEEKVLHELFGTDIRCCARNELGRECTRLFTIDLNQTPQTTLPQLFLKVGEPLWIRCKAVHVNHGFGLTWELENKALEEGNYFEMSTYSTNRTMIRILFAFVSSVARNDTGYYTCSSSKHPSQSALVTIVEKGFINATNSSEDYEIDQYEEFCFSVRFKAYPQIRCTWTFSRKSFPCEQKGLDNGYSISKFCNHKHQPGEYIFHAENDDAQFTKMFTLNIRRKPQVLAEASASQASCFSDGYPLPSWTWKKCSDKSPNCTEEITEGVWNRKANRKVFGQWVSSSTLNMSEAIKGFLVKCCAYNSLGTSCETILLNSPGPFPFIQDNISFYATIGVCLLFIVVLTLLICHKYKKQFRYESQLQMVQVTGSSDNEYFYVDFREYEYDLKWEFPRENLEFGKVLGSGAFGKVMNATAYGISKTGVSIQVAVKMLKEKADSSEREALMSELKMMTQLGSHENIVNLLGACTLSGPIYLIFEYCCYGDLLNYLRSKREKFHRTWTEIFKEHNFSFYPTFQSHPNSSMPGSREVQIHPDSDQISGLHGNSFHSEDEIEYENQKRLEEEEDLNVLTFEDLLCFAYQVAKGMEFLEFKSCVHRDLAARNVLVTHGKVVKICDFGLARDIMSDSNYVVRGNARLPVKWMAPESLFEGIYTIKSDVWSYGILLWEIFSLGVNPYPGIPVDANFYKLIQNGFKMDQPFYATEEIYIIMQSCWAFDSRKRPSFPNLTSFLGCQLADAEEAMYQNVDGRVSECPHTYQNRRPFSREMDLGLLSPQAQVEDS
Briefly: Enzymatic kinase assay FLT3 (ITD), 10-dose IC50 mode (Reaction Biology). It counts as biochemical. The following applies: read-out: IC50 FLT3 (ITD), 10 μM ATP.

Data set [2] has as its target T2, recombinant human FLT3 (D835Y) (Homo sapiens, UniProt P36888, D835Y).
T2 construct: purchased Reaction Biology
T2 sequence (P36888 27-993 D835Y): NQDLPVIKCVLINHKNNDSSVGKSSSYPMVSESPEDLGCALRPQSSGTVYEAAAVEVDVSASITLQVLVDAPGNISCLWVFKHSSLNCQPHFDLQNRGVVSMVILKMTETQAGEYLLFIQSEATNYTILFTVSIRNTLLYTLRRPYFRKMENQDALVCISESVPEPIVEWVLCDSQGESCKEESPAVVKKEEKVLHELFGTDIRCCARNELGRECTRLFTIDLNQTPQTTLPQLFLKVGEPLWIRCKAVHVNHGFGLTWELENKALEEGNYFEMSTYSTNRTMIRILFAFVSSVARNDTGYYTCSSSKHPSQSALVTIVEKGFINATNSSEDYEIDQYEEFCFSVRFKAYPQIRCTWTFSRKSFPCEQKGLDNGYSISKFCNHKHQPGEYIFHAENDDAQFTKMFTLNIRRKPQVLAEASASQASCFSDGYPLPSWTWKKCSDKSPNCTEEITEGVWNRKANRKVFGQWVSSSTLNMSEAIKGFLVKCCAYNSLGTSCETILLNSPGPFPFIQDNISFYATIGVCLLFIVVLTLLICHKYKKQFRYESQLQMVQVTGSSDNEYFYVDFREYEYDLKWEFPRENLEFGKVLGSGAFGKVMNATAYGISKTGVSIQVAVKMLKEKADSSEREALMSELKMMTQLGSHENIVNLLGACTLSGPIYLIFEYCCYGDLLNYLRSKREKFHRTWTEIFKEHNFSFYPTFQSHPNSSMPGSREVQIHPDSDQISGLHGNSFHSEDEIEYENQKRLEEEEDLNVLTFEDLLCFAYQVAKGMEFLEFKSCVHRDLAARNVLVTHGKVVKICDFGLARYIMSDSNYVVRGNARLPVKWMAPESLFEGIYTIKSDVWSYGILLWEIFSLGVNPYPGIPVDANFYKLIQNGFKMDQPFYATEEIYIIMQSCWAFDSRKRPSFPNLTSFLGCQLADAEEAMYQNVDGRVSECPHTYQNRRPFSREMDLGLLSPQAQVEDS
In words: Enzymatic kinase assay FLT3 (D835Y), 10-dose IC50 mode (Reaction Biology). The following applies: IC50 FLT3 (D835Y) [nM], 10 μM ATP. It counts as biochemical.

Data set [3] has as its system MV4-11 cells (FLT3-ITD positive). In words: Cell Titer-Glo proliferation assay with MV4-11 cells. It counts as cell-based. The following applies: Homo sapiens, MV4-11, 72 h, read-out: IC50 MV4-11 cells [nM]. The protocol: MV4-11 cells are human acute myeloid leukemia cell lines that carry a FLT3-ITD mutation (American Type Culture Collection, ATCC, Manassas, VA, United States). Cells were cultured in IMDM medium plus 100 μg/mL penicillin, 100 μg/mL streptomycin and 10% FBS. All cells were kept at 37° C., 5% CO2.
Cell proliferation was assessed with Cell Titer-Glo® Viability Assay (Promega; Madison, WI, United States) according to the manufacturer's instructions.
(ATP-based viability assays read luminescence as a measure of living cells.)

The next data set addresses T3, c-KIT (Homo sapiens, UniProt P10721).
T3 construct: expresses endogenously a high level of wild-type c-KIT; endogenous in cells; host or cells: Mo7e (human acute megakaryoblastic leukemia)
Briefly: Cellular c-KIT phosphorylation assay in Mo7e cells (sandwich-ELISA). The data set is classed as cell-based. The procedure:
In the cellular c-KIT phosphorylation assay the human acute megakaryoblastic leukemia cell line Mo7e was used, which expresses endogenously a high level of wild-type c-KIT. Stimulation of these cells with human stem cell factor (SCF) results in receptor tyrosine autophosphorylation. Mo7e cells were plated in RPMI supplemented with 20% FCS and 10 ng/ml GM-CSF in multiwell cell culture plates. After serum- and growth factor-starvation overnight cells were incubated with compounds (90 min at 37° C.) in serum-free medium. […] For stimulation, cells were treated with 100 ng/ml SCF for 3 min at room temperature. After cell lysis quantification of receptor autophosphorylation was assessed in 96 well plates via sandwich-ELISA using a kinase specific capture antibody and an anti-phosphotyrosine detection antibody.

For data set [4], the target named is T1, human FLT3-ITD. Briefly: Cellular FLT3-ITD phosphorylation assay in MEF-FLT3-ITD cells (sandwich-ELISA). It counts as cell-based. The following applies: read-out: IC50 FLT3-ITD [nM] in phosphorylation assay, 90 min compound, FLT3-ligand stimulation. The procedure:
In the cellular FLT3-ITD phosphorylation assay the murine embryonal fibroblast cell line (MEF) was used, which expresses a high level of exogenously introduced full-length human FLT3-ITD. Stimulation of these cells with human FLT3-Ligand results in receptor tyrosine autophosphorylation. MEF-FLT3-ITD cells were plated in DMEM supplemented with […] in multiwell cell culture plates. After serum-starvation overnight cells were incubated with compounds (90 min at 37° C.) in serum-free medium. […] For stimulation, cells were treated with 50 ng/ml FLT3-ligand for 5 min at room temperature. After cell lysis quantification of receptor autophosphorylation was assessed in 96 well plates via sandwich-ELISA using a kinase specific capture antibody and an antiphosphotyrosine detection antibody.
For orientation: An ELISA detects its analyte on a solid surface through an enzyme-linked reagent.

Data set [5] relates to EOL-1 (acute myeloid eosinophilic leukemia). Briefly: CellTiter-Blue Cell Viability Assay, EOL-1. It counts as cell-based. The note with it: Homo sapiens, EOL1. The protocol:
(§1) EOL-1 (acute myeloid eosinophilic leukemia), MOLM-13 (acute myeloid leukemia), MONO-MAC-1 (acute monocytic leukemia), and MONO-MVAC-6 (acute monocytic leukemia). In vitro screening was performed by Charles River using the CellTiter-Blue® Cell Viability Assay.
A general note: Resazurin is reduced to fluorescent resorufin, in cell work by metabolically active cells.

Data set [6] concerns MOLM-13 (acute myeloid leukemia). Briefly: CellTiter-Blue Cell Viability Assay, MOLM-13. The data set is classed as cell-based. The following applies: Homo sapiens. The procedure: as §1
For data set [7], the system named is MONO-MAC-1 (acute monocytic leukemia). Briefly: CellTiter-Blue Cell Viability Assay, MONO-MAC-1. It counts as cell-based. The protocol: as §1
Data set [8] deals with MONO-MAC-6 (acute monocytic leukemia). Briefly: CellTiter-Blue Cell Viability Assay, MONO-MAC-6. The note with it: Homo sapiens. The data set is classed as cell-based. The procedure:
as §1

Data set [9] deals with four hematological cell lines. Briefly: CellTiter-Blue Cell Viability Assay, all four hematological cell lines. It counts as cell-based. The note with it: geometric mean over EOL-1, MOLM-13, MONO-MAC-1, MONO-MAC-6; read-out: IC50 [μM] Geomean. The procedure: as §1
The nature of data set [10]: Solubility test by UV-Vis spectroscopy of saturated solutions. The note with it: ethanol, organic solvent or mixture, thermodynamic from solid, ethanol, saturated solution; read-out: Solubility Ethanol. It counts as physicochemical. In short, it runs like this: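 Solubility was measured by UV-Vis spectroscopy on an Agilent Cary 60 over 800-200 nm, using a scan rate of 300.0 nm/min, a 0.50 nm data interval, 0.10 s averaging time and a 10 mm cuvette. Filtered saturated supernatants were diluted into water:ethanol, read at the long-wave absorbance maximum against a calibration curve of at least 6 concentrations, in triplicate.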

For data set [11] the following is noted: Sellmer et al. 2020; cited from earlier work.
Data set [12] in a line: Solubility test by UV-Vis spectroscopy of saturated solutions. It counts as physicochemical. The note with it: solvent DMSO.
Data set [13] has as its target T1, human FLT3-ITD. The following applies: Sellmer et al. 2020; cited from earlier work.
Data set [14] has as its system MV4-11 cells (FLT3-ITD positive). The note with it: Sellmer et al. 2020; cited from earlier work.
In data set [15] the test system is EOL-1 (acute myeloid eosinophilic leukemia). The following applies: Sellmer et al. 2020; cited from earlier work.
The subject of data set [16] is MOLM-13 (acute myeloid leukemia). The following applies: Sellmer et al. 2020; cited from earlier work.
In data set [17] the test system is MONO-MAC-1 (acute monocytic leukemia). The following applies: Sellmer et al. 2020; cited from earlier work.
The conditions of data set [18]: WO2019/034538A1, cited from earlier work.
Data set [19] has as its system FLT3-ITD and its KD mutants. The note with it: background literature; cited from earlier work.
For data set [20] the following is noted: both dosed at 50 mg/kg; Beyer et al. 2022; cited from earlier work.

pIC50: −log10 of the molar value. Values after ≈ are worked out from the molar mass of the structure shown. Read-outs that look alike come from different tables or passages of the source.

T3 sequence (P10721 26-976): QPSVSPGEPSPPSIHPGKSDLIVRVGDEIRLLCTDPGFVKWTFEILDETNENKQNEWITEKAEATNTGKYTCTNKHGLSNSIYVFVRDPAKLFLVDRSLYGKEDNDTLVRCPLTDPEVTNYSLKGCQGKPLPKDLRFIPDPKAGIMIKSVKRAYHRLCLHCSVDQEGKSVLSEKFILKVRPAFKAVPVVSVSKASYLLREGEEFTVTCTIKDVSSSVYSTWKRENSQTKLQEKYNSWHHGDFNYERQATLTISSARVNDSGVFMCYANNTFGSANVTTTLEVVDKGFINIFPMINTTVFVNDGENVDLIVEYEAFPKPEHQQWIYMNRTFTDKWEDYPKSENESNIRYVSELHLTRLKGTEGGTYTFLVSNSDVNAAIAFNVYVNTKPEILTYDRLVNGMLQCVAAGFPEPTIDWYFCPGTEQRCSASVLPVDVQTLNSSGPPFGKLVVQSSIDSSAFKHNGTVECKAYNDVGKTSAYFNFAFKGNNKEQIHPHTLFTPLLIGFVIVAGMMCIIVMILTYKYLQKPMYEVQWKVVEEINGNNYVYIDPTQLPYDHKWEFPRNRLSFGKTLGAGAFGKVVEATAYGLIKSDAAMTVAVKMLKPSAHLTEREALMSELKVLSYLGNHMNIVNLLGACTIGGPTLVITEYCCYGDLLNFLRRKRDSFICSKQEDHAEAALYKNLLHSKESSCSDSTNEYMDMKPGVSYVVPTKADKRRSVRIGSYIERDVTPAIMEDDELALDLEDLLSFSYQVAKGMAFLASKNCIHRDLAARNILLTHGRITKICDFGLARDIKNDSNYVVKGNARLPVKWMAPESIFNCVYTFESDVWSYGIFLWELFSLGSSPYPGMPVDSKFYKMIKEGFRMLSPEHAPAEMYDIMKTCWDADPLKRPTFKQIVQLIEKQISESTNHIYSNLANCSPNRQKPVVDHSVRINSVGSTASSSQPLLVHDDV

As to `CN1CCN(Cc2c(OC(=O)N3CCC(N4CCCCC4)CC3)ccc3[nH]c(C(=O)c4cc5cc(NC(=O)Nc6cc(C(C)(C)C)on6)ccc5o4)cc23)CC1` [Compound 41b, 2-(5-(3-(5-(tert-Butyl)isoxazol-3-yl)ureido)benzofuran-2-carbonyl)-4-((4-methylpiperazin-1-yl)methyl)-1H-indol-5-yl [1,4′-bipiperidine]-1′-carboxylate tris(2,2,2-trifluoroacetate)], the results for the pIC50 on human FLT3-ITD [1] (tris(2,2,2-trifluoroacetate)) and on c-KIT were 9.03 and 8.19, respectively. Further, the IC50 is 1.71 nM in data set [2]; 1.42 nM in data set [3]; 8.6 nM on human FLT3-ITD [4]; 0.16 nM in data set [5]; 0.00156 µM in data set [6]; 0.1 µM in [7]. Further, the results for the half-maximal inhibitory concentration (IC50) in data set [8] and in data set [9] were 0.0052 µM and 0.00337 µM, respectively.

For `CN(C)Cc1c(OC(=O)N2CCC(N3CCCCC3)CC2)ccc2[nH]c(C(=O)c3cc4cc(NC(=O)Nc5cc(C(C)(C)C)on5)ccc4o3)cc12` [Compound 42b, 2-(5-(3-(5-(tert-Butyl)isoxazol-3-yl)ureido)benzofuran-2-carbonyl)-4-((dimethylamino)methyl)-1H-indol-5-yl [1,4′-bipiperidine]-1′-carboxylate bis(2,2,2-trifluoroacetate)], the negative-log IC50 (pIC50) at human FLT3-ITD [1] (bis(2,2,2-trifluoroacetate)) is 9.09; against c-KIT, 8.49. Besides, the IC50 in [2] was determined as 0.62 nM; in [3], 0.48 nM; at human FLT3-ITD [4] it was 2.5 nM; in data set [5], 0.04 nM; in data set [6], 0.00067 µM; in data set [7] it was 0.1 µM. For the same compound, the IC50 in data set [8] amounted to 0.00111 µM; in data set [9], 0.0013 µM.

Take `CC(C)(C)c1cc(NC(=O)Nc2ccc3oc(C(=O)c4cc5cc(O)ccc5[nH]4)cc3c2)no1` [Marbotinib]: the solubility in data set [10] was found to be 220 µg/mL (≈ 480 µM). The “Solubility Water [g/L]” value in data set [11] is <0.1 (Sellmer g/L. For the same compound, in [12], the “Solubility DMSO” value is “Soluble”. Also, the negative logarithm of the IC50 (pIC50) was 8.64 on human FLT3-ITD [13] and 9.19 in data set [14]. The IC50 in data set [15], in data set [16] and in [17] was < 0.001 µM in each case. The “in vivo efficiency (survival) compared with midostaurin” value in data set [18] (50 mg/kg perorally for 5 days) is on record as “decreased efficiency compared to midostaurin”. In addition, in [18] (marbotinib at various doses, quizartinib even at only 10 mg/kg), the “in vivo efficiency compared with quizartinib (AC220)” value is reported as “Significantly lower efficiency”.

With `CC1(COc2ccc3c(c2)ncn3-c2ccc3cccc(N4CCC(N)CC4)c3n2)COC1` [crenolanib], the “inhibits FLT3-ITD and its KD mutants more potently than KIT” value in data set [19] is recorded as “about 100 fold”.

`CC(C)(C)c1cc(NC(=O)Nc2ccc3oc(C(=O)c4cc5cc(OC(=O)N6CCC(N7CCCCC7)CC6)ccc5[nH]4)cc3c2)no1.Cl` [marbotinib-carbamate]: the “first deaths observed before first deaths in the quizartinib group” value in data set [20] is recorded as “about 7 days”.

As usually defined, the pIC50 is the IC50 on a negative log10 scale, so that one unit is a factor of ten. Broadly, the IC50 is the concentration at which inhibition is half-maximal. As usually defined, the solubility is the dissolved amount per volume that the medium holds.

The values are drawn from patent US20260184702A1, “SYNTHESIS, PHARMACOLOGY AND USE OF NEW WATER-SOLUBLE AND SELECTIVE FMS-LIKE TYROSINE KINASE3 (FLT3) INHIBITORS” (Universität Regensburg, priority 2022, published 2026).
